Literature values, collected in publication PMC13291975, “Brighter NIR Bioluminescence System for Mammalian Cell Bioimaging Based on Engineered Railroadworm Luciferase and 6′-Aminoluciferin Analogues” (Chemical & Biomedical Imaging, 2026).

Biological target: T1, Phrixotrix hirtus railroadworm red-emitting luciferase (PxRE; RE-WT) (Phrixothrix hirtus, UniProt Q9U4U7)
T1 construct: N-terminal His-tag, pCold vector, expressed in E. coli BL21-DE3, Ni-agarose purified
Experiment: bioluminescence peak intensity, Lineweaver-Burk
Format: biochemical
Conditions: read-out: K M LH2; ATP/MgSO4, 0.1 M Tris-HCl pH 8.0; kcat in relative luminometer counts; error not given, value possibly from the authors' earlier work; the text says 'Previously, we showed'
Text: bioluminescence peak intensity, Lineweaver-Burk on Phrixotrix hirtus railroadworm red-emitting luciferase (PxRE; RE-WT)

T1 sequence (Q9U4U7 entry or part of it): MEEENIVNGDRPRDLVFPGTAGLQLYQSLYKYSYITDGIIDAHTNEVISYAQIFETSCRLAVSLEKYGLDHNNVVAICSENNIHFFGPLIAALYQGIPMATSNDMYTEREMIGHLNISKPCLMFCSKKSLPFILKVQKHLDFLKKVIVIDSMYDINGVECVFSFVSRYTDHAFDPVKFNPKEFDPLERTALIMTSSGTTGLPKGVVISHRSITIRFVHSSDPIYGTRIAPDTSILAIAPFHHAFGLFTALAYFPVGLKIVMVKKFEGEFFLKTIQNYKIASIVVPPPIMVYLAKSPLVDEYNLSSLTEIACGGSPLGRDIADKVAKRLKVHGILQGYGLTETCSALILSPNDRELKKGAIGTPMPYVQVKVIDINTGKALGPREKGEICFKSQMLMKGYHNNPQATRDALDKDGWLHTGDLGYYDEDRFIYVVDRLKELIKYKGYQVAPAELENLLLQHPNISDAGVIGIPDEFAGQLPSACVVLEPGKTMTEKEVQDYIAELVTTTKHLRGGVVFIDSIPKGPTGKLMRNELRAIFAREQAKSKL

Km: 7 µM
Structure (SMILES): O=C(O)[C@H]1CSC(c2nc3ccc(O)cc3s2)=N1 [LH2, D-luciferin]
